# Like-named read-outs stand apart in the source and are kept apart here.
# Key:
# [1] = system: IAV PR8 NP; type: cell-based; details: MOI 0.01, 24 h; for reduction of IAV PR8 NP (NP/ERK2 normalized to solvent control): both cell lines
# [2] = human, in vivo; cited from earlier work
# [3] = system: SARS-CoV-2 B.1 isolate “FI”; set-up: method as in Schreiber et al., 2022; details: ref Schreiber et al., 2022, read-out: EC50 value against SARS-CoV-2; cited from earlier work
# [4] = system: IAV PR8; experiment: Virus yield reduction assay, IAV PR8 (virus titer by RT-qPCR); type: cell-based, Influenza A virus, strain: A/Puerto Rico/8/1934 (H1N1); details: 0.2% BSA; for reduction of the virus titer: Calu-3 and Caco-2 cells, 24 h
# Method: Calu-3 and Caco-2 cells were seeded in 24-well plates (Greiner Bio-One GmbH, Frickenhausen, Germany) and grown to 90% confluence. The cells were washed once with infection medium [IMDM supplemented with 0.2% bovine serum albumin (BSA) (Carl Roth GmbH + Co. KG, Karlsruhe, Germany) and 1% penicillin–streptomycin] prior to infection with a multiplicity of infection (MOI) of 0.01 of IAV PR8 or SARS-CoV-2 for 1 h in 200 µL of infection medium per well. Afterwards, the virus inoculum was removed completely, and the cells were washed once with infection medium and then treated with 1 mL per well of different concentrations of zapnometinib in infection medium with 1% dimethyl sulfoxide (DMSO) (Merck Millipore, Burlington, MA, USA) for 24 h at 37°C, 5% CO2. Supernatants were harvested and stored at −80°C for subsequent determination of virus titer and EC50 value. Cell lysates were prepared as described in the “Preparation of cell lysates and WES™ analysis” section for WES™ analysis.
# The viral titers of IAV and SARS-CoV-2 viruses were determined using a real-time one-step multiplex RT-qPCR method. Briefly, viral nucleic acid extraction was performed using a QIAamp Viral RNA Mini Kit (Qiagen, Venlo, Netherlands) according to the manufacturer’s instructions. A TaqMan-based RT-qPCR assay was carried out using a QuantiNova Pathogen kit (Qiagen, Venlo, Netherlands) with specific primers targeting the SARS-CoV-2 N gene (2019-CoV2-N1F: […], 2019-CoV2-N1R: […], 2019-CoV2-N1P [6FAM]: […] [BHQ1]) and M gene for IAV according to the WHO guidelines. The viral genome copies per mL (gc/mL) were determined based on a standard curve prepared with 10-fold serial dilutions of the target gene. For quality control, nuclease-free water was included in each set of extractions as a negative control to monitor any possible cross-contamination. Moreover, an artificial exogenous QuantiNova RNA internal control (Qiagen, Venlo, Netherlands) was included during the nucleic acid purification to monitor the RNA purification efficiency and the RT-PCR amplification. A Rotor-Gene Q™ Real-Time PCR detection system (Qiagen, Venlo, Netherlands) was used for amplification, and the data were analyzed using Q-Rex software (Qiagen, Venlo, Netherlands).
# For EC50 determination, a virus yield reduction assay was performed. The virus titer in the cell culture supernatant was determined and normalized to the solvent control. The EC50 value was determined using the “log(inhibitor) vs. normalized response - Variable slope” equation in GraphPad Prism version 9.4.0.
# [5] = system: ERK2; experiment: ERK2 content in cell lysates by WES; type: cell-based, Homo sapiens; details: Caco-2 and Calu-3 cell lysates, 24 h of treatment
# Method: Cells were lysed using cold modified RIPA buffer [0.24% (w/v) tris base (Sigma-Aldrich, St. Louis, Missouri, USA), 0.88% (w/v) NaCl (Carl Roth, Karlsruhe, Germany), 0.2% (v/v) 500 mM ethylenediaminetetraacetic acid (EDTA) (Sigma-Aldrich, St. Louis, Missouri, USA), 1% (v/v) Triton X-100 (Sigma-Aldrich, St. Louis, Missouri, USA), 0.5% (w/v) sodium deoxycholate (Sigma-Aldrich, St. Louis, Missouri, USA), 0.1% (w/v) sodium dodecyl sulfate (SDS) (Carl Roth, Karlsruhe, Germany), 10% (v/v) glycerol (Carl Roth, Karlsruhe, Germany), 0.05% phenylmethylsulfonyl fluoride (PMSF) (Carl Roth, Karlsruhe, Germany), 0.01% Benzonase® Nuclease (Sigma-Aldrich, St. Louis, Missouri, USA), protease inhibitor cocktail (Roche, Basel, Switzerland), and phosphatase inhibitor cocktail (Roche, Basel, Switzerland) in water]. Determination of the protein concentration was performed using the Pierce™ BCA Protein Assay Kit (Thermo Fisher Scientific Inc., Waltham, MA, USA) according to the manufacturer’s instructions. […] Ratios were calculated from the area under the curve of the respective detected signals.
structure (smiles),measurement,setting,value
"O=C(O)c1ccc(F)c(F)c1Nc1ccc(I)cc1Cl [zapnometinib, 2-(2-chloro-4-iodophenylamino)-N-3,4-difluoro benzoic acid]",reduction of IAV PR8 NP (NP/ERK2 normalized to solvent control),[1]; 12.5 µM,approximately 50%
same,reduction of IAV PR8 NP (NP/ERK2 normalized to solvent control),[1]; 50 µM,> 70%
same,reduction of IAV PR8 NP (NP/ERK2 normalized to solvent control),[1]; 100 µM,> 80%
same,lowest concentration at which IAV PR8 NP was significantly reduced compared to solvent control,[1],0.39 µM
same,tolerability in phase I clinical trial,[2],well tolerated
same,EC50,[3],31.3 µM
same,reduction of the virus titer,[4]; 12.5 µM,≥ 50%
same,reduction of the virus titer,[4]; 25 µM,≥ 50%
same,reduction of the virus titer,[4]; 100 µM,> 90%
same,EC50,"[4]; Caco-2 cells, MOI 0.01, 24 h, read-out: EC50 value against IAV PR8",5.72 µM
same,EC50,"[4]; Calu-3 cells, MOI 0.01, 24 h, read-out: EC50 value against IAV PR8",7.13 µM
same,EC50,"[4]; Influenza A virus, PR8, Caco-2, 24 h, Caco-2 cells, MOI 0.01, 24 h, read-out: EC50 value against IAV PR8",5.72 µM
same,EC50,"[4]; Influenza A virus, PR8, Calu-3, 24 h, Calu-3 cells, MOI 0.01, 24 h, read-out: EC50 value against IAV PR8",7.13 µM
same,EC50,"[4]; Influenza A virus, PR8, summary for Calu-3 and Caco-2 cells, read-out: EC50 values for IAV PR8 in both cell lines",< 10 µM
same,effect on ERK2 content in the cells,[5],does not affect

# Reference: paper PMC10641236, “Influenza A virus replication has a stronger dependency on Raf/MEK/ERK signaling pathway activity than SARS-CoV-2” (Frontiers in Cellular and Infection Microbiology, 2023)
